# ChEMBL document CHEMBL1201862, “PubChem BioAssay data set” (2004)
#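 Results reflect a 48-hour exposure of cells in 96-well plates to compound at five concentrations. GI50: concentration for 50% inhibition of growth.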 Activity calls are given as the source filed them. Cut-off read from the data, not from the text of the source: active = GI50 up to about 1.1 µM and inactive = higher.
# Columns and labels:
# Assay in all cases: NCI tumour cell line growth inhibition, 48 h
# [1] = system: OVCAR-5
# [2] = system: OVCAR-3
# [3] = system: COLO 205
# [4] = system: UACC-257
# [5] = system: SK-MEL-28
# [6] = system: HOP-62
# [7] = system: HCT-15
# [8] = system: SF-539
# [9] = system: SF-295
# [10] = system: SNB-75
# [11] = system: HOP-92
# [12] = system: ACHN
# [13] = system: SF-268
# [14] = system: SNB-19
# [15] = system: NCI-H226
# [16] = system: HCC 2998
# [17] = system: CAKI-1
# [18] = system: OVCAR-4
SMILES,GI50 [1],GI50 [2],GI50 [3],GI50 [4],GI50 [5],GI50 [6],GI50 [7],GI50 [8],GI50 [9],GI50 [10],GI50 [11],GI50 [12],GI50 [13],GI50 [14],GI50 [15],GI50 [16],GI50 [17],GI50 [18]
O=C1C(c2ccccc2)=[N+]([O-])c2ccc(Cl)cc21,35.2 µM (inactive),23.3 µM (inactive),14.1 µM (inactive),19.3 µM (inactive),20 µM (inactive),63.4 µM (inactive),20 µM,20.2 µM (inactive),34.1 µM (inactive),46.8 µM (inactive),0.0256 µM (active),23.2 µM (inactive),22.4 µM (inactive),34.5 µM (inactive),14.7 µM (inactive),,,
CC12CC/C(=N/NC(N)=O)C3C1CCCC32,,> 100 µM (inactive),> 100 µM (inactive),> 100 µM (inactive),> 100 µM (inactive),> 100 µM (inactive),> 100 µM,> 100 µM (inactive),> 100 µM (inactive),> 100 µM (inactive),> 100 µM (inactive),> 100 µM (inactive),> 100 µM (inactive),> 100 µM (inactive),> 100 µM (inactive),> 100 µM (inactive),> 100 µM (inactive),> 100 µM (inactive)
CC1(C)Oc2ccccc2N2O[C@@H]3C(=O)N(c4ccccc4)C(=O)[C@@H]3C21c1ccccc1 (some centres not stated),78.3 µM (inactive),21.2 µM (inactive),39.1 µM (inactive),34 µM (inactive),29.2 µM (inactive),16.8 µM (inactive),,17.3 µM (inactive),15.7 µM (inactive),17.7 µM (inactive),,,33.9 µM (inactive),19.7 µM (inactive),55.3 µM (inactive),> 100 µM (inactive),24.9 µM (inactive),17.9 µM (inactive)
CCN(CC)C(=O)CCn1ccc(=O)[nH]c1=O,> 100 µM (inactive),> 100 µM (inactive),> 100 µM (inactive),,> 100 µM (inactive),> 100 µM (inactive),> 100 µM,> 100 µM (inactive),> 100 µM (inactive),43.1 µM (inactive),,> 100 µM (inactive),> 100 µM (inactive),> 100 µM (inactive),> 100 µM (inactive),,,> 100 µM (inactive)
NCCSc1cc(O)c2c(c1N)C(=O)c1ccccc1C2=O,> 100 µM (inactive),43 µM (inactive),,,> 100 µM (inactive),> 100 µM (inactive),29.3 µM,92.5 µM (inactive),46 µM (inactive),67.6 µM (inactive),60.5 µM (inactive),43.8 µM (inactive),55.8 µM (inactive),34 µM (inactive),,> 100 µM (inactive),> 100 µM (inactive),99.3 µM (inactive)
COc1ccc(/C=C/C(=O)c2sc(-c3cccnc3)nc2C)cc1,> 100 µM (inactive),24.2 µM (inactive),48.3 µM (inactive),> 100 µM (inactive),94 µM (inactive),63.7 µM (inactive),45.3 µM,21.1 µM (inactive),35.8 µM (inactive),30.1 µM (inactive),81.5 µM (inactive),,74.6 µM (inactive),,23.8 µM (inactive),37.5 µM (inactive),49.9 µM (inactive),
CSc1sc(=S)sc1C(=O)N(C)c1ccccc1,> 100 µM (inactive),91.8 µM (inactive),> 100 µM (inactive),,> 100 µM (inactive),> 100 µM (inactive),> 100 µM,> 100 µM (inactive),> 100 µM (inactive),22.6 µM (inactive),,> 100 µM (inactive),> 100 µM (inactive),> 100 µM (inactive),> 100 µM (inactive),,,> 100 µM (inactive)
CC(C)CCC[C@@H](C)C1CCC2[C@@H]3CC=C4C[C@@H](C(=O)NCC[N+](C)(C)CCCS(=O)(=O)[O-])CC[C@]4(C)C3CC[C@@]21C (some centres not stated),,16.4 µM (inactive),17.5 µM (inactive),20 µM (inactive),19.8 µM (inactive),24 µM (inactive),16.3 µM,21.3 µM (inactive),20 µM (inactive),20.2 µM (inactive),,18.5 µM (inactive),21.1 µM (inactive),21.8 µM (inactive),21.2 µM (inactive),19.8 µM (inactive),14.2 µM (inactive),20.3 µM (inactive)
N#[N+][c-]1c(-c2ccccc2)n[nH]c1=O,> 100 µM (inactive),> 100 µM (inactive),> 100 µM (inactive),> 100 µM (inactive),> 100 µM (inactive),,> 100 µM,> 100 µM (inactive),> 100 µM (inactive),> 100 µM (inactive),> 100 µM (inactive),> 100 µM (inactive),> 100 µM (inactive),,> 100 µM (inactive),> 100 µM (inactive),> 100 µM (inactive),> 100 µM (inactive)
